Our source for the inhibition and IC50 values is paper doi:10.1101/2023.06.16.545261v2 (biorxiv, 2023).

The target in experiment [1] is T1, SIRT7 (recombinant human SIRT7, non-tagged) (Homo sapiens, UniProt Q9NRC8).
T1 sequence (Q9NRC8 1-400): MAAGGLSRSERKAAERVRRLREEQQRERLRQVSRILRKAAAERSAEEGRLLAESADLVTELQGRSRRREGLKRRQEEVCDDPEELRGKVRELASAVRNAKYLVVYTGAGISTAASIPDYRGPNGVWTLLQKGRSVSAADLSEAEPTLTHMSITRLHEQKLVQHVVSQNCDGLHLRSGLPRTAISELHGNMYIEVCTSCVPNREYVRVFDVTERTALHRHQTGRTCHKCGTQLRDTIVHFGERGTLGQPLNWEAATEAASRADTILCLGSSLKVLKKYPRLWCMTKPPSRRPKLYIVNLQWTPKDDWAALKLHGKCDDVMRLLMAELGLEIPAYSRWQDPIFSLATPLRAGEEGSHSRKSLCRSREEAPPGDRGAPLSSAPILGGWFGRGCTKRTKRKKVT
Kind of experiment: fluorogenic deacylase assay. The settings on record: read-out: % inhibition at 100 μM. It counts as biochemical.

Experiment [2] has as its target T1, SIRT7 (recombinant human SIRT7, non-tagged). The experiment can be described thus: fluorogenic deacylase assay. The experiment is classed as biochemical.

For the compound `CCCCCCCCCCCCNC(=S)NCCCC[C@H](NC(=O)OCc1ccccc1)C(=O)N[C@@H](C)C(=O)N[C@@H](CCCNC(=N)N)C(N)=O` [compound 3], the inhibition at 100 µM in experiment [1] turned out to be 26%.

Turning to `CCCCCCCCCCCCNC(=O)CCCCC[C@H](NC(=O)OCc1ccccc1)C(=O)N[C@H](C(=O)N[C@@H](CCC(=O)O)C(N)=O)C(C)C` [compound 33, inverse amide 33], in experiment [2], the IC50 stood at 44 µM.

For the compound `CCCCCCCCCCCCNC(=S)CCCCC[C@H](NC(=O)OCc1ccccc1)C(=O)N[C@H](C(=O)N[C@@H](CCC(=O)O)C(N)=O)C(C)C` [compound 34, inverse thioamide 34], the IC50 in experiment [2] came out at 34 µM.
